According to paper PMC10819888, “Benzimidazole-Based Derivatives as Apoptotic Antiproliferative Agents: Design, Synthesis, Docking, and Mechanistic Studies” (Molecules, 2024):

Assays:
Assay in all cases: NCI-60 one-dose assay
Type in all cases: cell-based
786-0 = conditions: Homo sapiens, 786-0 (Renal Cancer), read-out: Cell Inhibition Percent
Protocol: (§1) The final compounds were submitted to the National Cancer Institute, Bethesda, USA, for screening in vitro for anti-cancer. […] compounds, 4a–j, 5, and 6, were selected according to the Development Therapeutic Program (DTP) protocol. The selected compounds were evaluated for their in vitro cytotoxic activity against a panel of sixty cancer cell lines (NCI-60 cell line panel) derived from six cell lines panel of leukemia, nine cell lines of lung cancer, six cell lines of CNS cancer, seven cell lines of colon cancer, eight cell lines of melanoma, six cell lines of ovarian cancer, eight cell lines of renal cancer, two cell lines of prostate cancer, and eight cell lines of breast cancer, representing the full nine human systems as leukemia, melanoma, and cancers of the lung, colon, brain, breast, ovary, kidney, and prostate.
(§2) The selected compounds 4a–j, 5, and 6 were tested at a single concentration of 10 µM. The screening results for the selected compounds are illustrated in Table 1.
(§3) The NCI anti-cancer screening methodology has been described in detail elsewhere (http://www.dtp.nci.nih.gov, accessed on 20 February 2021). Following the Drug Evaluation Branch protocol, National Cancer Institute, Bethesda, USA, a primary anti-cancer assay was performed on approximately 60 human tumor cell line panels derived from nine neoplastic diseases.

CAKI-1 = conditions: Homo sapiens, CAKI-1 (Renal Cancer), read-out: Cell Inhibition Percent
Protocol: as §1, §2, §3

CCRF-CEM = conditions: Homo sapiens, CCRF-CEM (Leukemia), read-out: Cell Inhibition Percent
Protocol: as §1, §2, §3

COLO 205 = conditions: Homo sapiens, COLO 205 (Colon Cancer), read-out: Cell Inhibition Percent
Protocol: as §1, §2, §3

HCC-2998 = conditions: Homo sapiens, HCC-2998 (Colon Cancer), read-out: Cell Inhibition Percent
Protocol: as §1, §2, §3

HCT-116 = conditions: Homo sapiens, HCT-116 (Colon Cancer), read-out: Cell Inhibition Percent
Protocol: as §1, §2, §3

HCT-15 = conditions: Homo sapiens, HCT-15 (Colon Cancer), read-out: Cell Inhibition Percent
Protocol: as §1, §2, §3

HOP-92 = conditions: Homo sapiens, HOP-92 (Non-Small Cell Lung Cancer), read-out: Cell Inhibition Percent
Protocol: as §1, §2, §3

IGROV1 = conditions: Homo sapiens, IGROV-1, IGROV1 (ovarian cancer), read-out: Cell Inhibition Percent
Protocol: as §1, §2, §3

K-562 = conditions: Homo sapiens, K562, K-562 (Leukemia), read-out: Cell Inhibition Percent
Protocol: as §1, §2, §3

KM12 = conditions: Homo sapiens, KM12 (Colon Cancer), read-out: Cell Inhibition Percent
Protocol: as §1, §2, §3

MDA-MB-435 = conditions: Homo sapiens, MDA-MB-435 (Melanoma), read-out: Cell Inhibition Percent
Protocol: as §1, §2, §3

MDA-MB-468 = conditions: Homo sapiens, MDA-MB-468 (Breast Cancer), read-out: Cell Inhibition Percent
Protocol: as §1, §2, §3

NCI-H322M = conditions: Homo sapiens, NCI-H322M (Non-Small Cell Lung Cancer), read-out: Cell Inhibition Percent
Protocol: as §1, §2, §3

OVCAR-3 = conditions: Homo sapiens, OVCAR-3 (ovarian cancer), read-out: Cell Inhibition Percent
Protocol: as §1, §2, §3

OVCAR-4 = conditions: Homo sapiens, OVCAR-4 (ovarian cancer), read-out: Cell Inhibition Percent
Protocol: as §1, §2, §3

OVCAR-5 = conditions: Homo sapiens, OVCAR-5 (ovarian cancer), read-out: Cell Inhibition Percent
Protocol: as §1, §2, §3

OVCAR-8 = conditions: Homo sapiens, OVCAR-8 (ovarian cancer), read-out: Cell Inhibition Percent
Protocol: as §1, §2, §3

PC-3 = conditions: Homo sapiens, PC-3 (Prostate Cancer), read-out: Cell Inhibition Percent
Protocol: as §1, §2, §3

RPMI-8226 = conditions: Homo sapiens, RPMI-8226 (Leukemia), read-out: Cell Inhibition Percent
Protocol: as §1, §2, §3

RXF 393 = conditions: Homo sapiens, RXF 393 (Renal Cancer), read-out: Cell Inhibition Percent
Protocol: as §1, §2, §3

SF-295 = conditions: Homo sapiens, SF-295 (CNS cancer), read-out: Cell Inhibition Percent
Protocol: as §1, §2, §3

SF-539 = conditions: Homo sapiens, SF-539 (CNS cancer), read-out: Cell Inhibition Percent
Protocol: as §1, §2, §3

SK-MEL-28 = conditions: Homo sapiens, SK-MEL-28 (Melanoma), read-out: Cell Inhibition Percent
Protocol: as §1, §2, §3

SK-OV-3 = conditions: Homo sapiens, SK-OV-3 (ovarian cancer), read-out: Cell Inhibition Percent
Protocol: as §1, §2, §3

SNB-75 = conditions: Homo sapiens, SNB-75 (CNS cancer), read-out: Cell Inhibition Percent
Protocol: as §1, §2, §3

SR = conditions: Homo sapiens, SR (Leukemia), read-out: Cell Inhibition Percent
Protocol: as §1, §2, §3

U251 = conditions: Homo sapiens, U-251, U251 (CNS cancer), read-out: Cell Inhibition Percent
Protocol: as §1, §2, §3

UACC-257 = conditions: Homo sapiens, UACC-257 (Melanoma), read-out: Cell Inhibition Percent
Protocol: as §1, §2, §3

UACC-62 = conditions: Homo sapiens, UACC-62 (Melanoma), read-out: Cell Inhibition Percent
Protocol: as §1, §2, §3

UO-31 = conditions: Homo sapiens, UO-31 (Renal Cancer), read-out: Cell Inhibition Percent
Protocol: as §1, §2, §3

`O=C(NN=Cc1ccccc1)c1ccc2[nH]c(-c3ccc(Cl)cc3)nc2c1` [Compound 4a, N′-Benzylidene-2-(4-chlorophenyl)-1H-benzimidazole-5-carbohydrazide] showed an inhibition at 10 µM (786-0) of 11.6%, an inhibition at 10 µM (CAKI-1) of 1.57% and an inhibition at 10 µM (CCRF-CEM) of 11.2%. The inhibition at 10 µM (COLO 205) was 0.76%, the inhibition at 10 µM (HCC-2998) was 0% and the inhibition at 10 µM (HCT-116) was 0%. The inhibition at 10 µM (HCT-15) was 4.81%, the inhibition at 10 µM (HOP-92) was 0% and the inhibition at 10 µM (IGROV1) was 4.8%. It also gave an inhibition at 10 µM (K-562) of 7.37%, an inhibition at 10 µM (KM12) of 3.8% and an inhibition at 10 µM (MDA-MB-435) of 0%. It also gave an inhibition at 10 µM (MDA-MB-468) of 0%, an inhibition at 10 µM (NCI-H322M) of 0% and an inhibition at 10 µM (OVCAR-3) of 0%. It also gave an inhibition at 10 µM (OVCAR-4) of 0%, an inhibition at 10 µM (OVCAR-5) of 0% and an inhibition at 10 µM (OVCAR-8) of 1.37%. It also gave an inhibition at 10 µM (PC-3) of 0%, an inhibition at 10 µM (RPMI-8226) of 13.8% and an inhibition at 10 µM (RXF 393) of 15.5%. It also gave an inhibition at 10 µM (SF-295) of 13.2%, an inhibition at 10 µM (SF-539) of 9.57% and an inhibition at 10 µM (SK-MEL-28) of 0%. For the same compound, the inhibition at 10 µM (SK-OV-3) was 4.7%, the inhibition at 10 µM (SNB-75) was 10.7% and the inhibition at 10 µM (SR) was 18.1%. It also gave an inhibition at 10 µM (U251) of 4.35%, an inhibition at 10 µM (UACC-257) of 0% and an inhibition at 10 µM (UACC-62) of 0%. The inhibition at 10 µM (UO-31) was 8.73%.

`CN(C)c1ccc(C=NNC(=O)c2ccc3[nH]c(-c4ccc(Cl)cc4)nc3c2)cc1` [Compound 4b, N′-(4-(Dimethylamino)benzylidene)-2-(4-chlorophenyl)-1H-benzimidazole-5-carbohydrazide] was tested, and the inhibition at 10 µM (786-0) was 0%, the inhibition at 10 µM (CAKI-1) was 4.4% and the inhibition at 10 µM (CCRF-CEM) was 6.5%. The inhibition at 10 µM (COLO 205) was 0%, the inhibition at 10 µM (HCC-2998) was 6.31% and the inhibition at 10 µM (HCT-116) was 4.7%. It also gave an inhibition at 10 µM (HCT-15) of 0%, an inhibition at 10 µM (HOP-92) of 0% and an inhibition at 10 µM (IGROV1) of 15%. For the same compound, the inhibition at 10 µM (K-562) was 5.96%, the inhibition at 10 µM (KM12) was 2.41% and the inhibition at 10 µM (MDA-MB-435) was 0%. The inhibition at 10 µM (MDA-MB-468) was 0%, the inhibition at 10 µM (NCI-H322M) was 0.24% and the inhibition at 10 µM (OVCAR-3) was 0%. The inhibition at 10 µM (OVCAR-4) was 0%, the inhibition at 10 µM (OVCAR-5) was 0% and the inhibition at 10 µM (OVCAR-8) was 5.81%. The inhibition at 10 µM (PC-3) was 4.81%, the inhibition at 10 µM (RPMI-8226) was 5.27% and the inhibition at 10 µM (RXF 393) was 7.79%. For the same compound, the inhibition at 10 µM (SF-295) was 1.06%, the inhibition at 10 µM (SF-539) was 5.22% and the inhibition at 10 µM (SK-MEL-28) was 0%. For the same compound, the inhibition at 10 µM (SK-OV-3) was 0%, the inhibition at 10 µM (SNB-75) was 0.61% and the inhibition at 10 µM (SR) was 2.54%. For the same compound, the inhibition at 10 µM (U251) was 0%, the inhibition at 10 µM (UACC-257) was 0% and the inhibition at 10 µM (UACC-62) was 1.06%. The inhibition at 10 µM (UO-31) was 13.3%.
